Experimental data: patent US20100216779A1 (GLAXOSMITHKLINE LLC, priority 2007, published 2010)

How the values were obtained:
Type in all cases: cell-based
[1] = target: T1, human IGF-1R (NIH-3T3 cells over expressing human IGF-1R) (Homo sapiens, UniProt P08069); assay: IGF-1R cellular autophosphorylation (DELFIA); settings: IGF-1 stimulated
T1 construct: expressed in transfected cells; host or cells: NIH-3T3 (mouse fibroblasts)
Summary of the method: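 Readout: DELFIA on lysates, with anti-IGF-1R or anti-IR capture and europium anti-pTyr detection, expressed relative to 100% ligand-stimulated signal. Human IGF-1R- or IR-overexpressing NIH-3T3 cells got compound (1.5 nM–30 uM) for 2 h before 15 min IGF-1 (30 ng/mL) or insulin (3 ug/mL).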

[2] = target: T2, IR (NIH-3T3 cells over expressing human IGF-1R or IR) (Homo sapiens, UniProt P06213); assay: IR cellular autophosphorylation (DELFIA); settings: NIH-3T3 cells over expressing IR, insulin stimulated
T2 construct: expressed in transfected cells; host or cells: NIH-3T3 (mouse fibroblasts)
Protocol: D. IGF-1R and IR Cellular Autophosphorylation (DELFIA)
NIH-3T3 cells over expressing human IGF-1R or IR were plated in 96-well plates (10,000 cells/well) in culture media containing 10% fetal bovine serum and incubated at 37° C. in a 5% CO2 incubator. Twenty four hours post-plating, cells were treated with different concentrations of test compounds ranging from 30 uM to 1.5 nM. Two hours after compound addition, cells were stimulated with either human IGF-1 (30 ng/mL) or insulin (3 ug/mL) for 15 minutes. Cell lysates are analyzed for phosphorylated receptors using dissociation enhanced lanthanide fluor-immuno assay (DELFIA) with anti-IGF-1R (MAB391, R&D Systems, Minneapolis, Minn.) or anti-IR[…](sc-711, Santa Cruz Biotechnology, Santa Cruz, Calif.) capture antibody and europium-labeled anti-pTyr antibody (Eu-N1 PT66, Perkin Elmer, Waltham, Mass.) for detection. The fluorescence signal for cells treated with compounds was expressed as percent relative to 100% stimulation (IGF-1 or insulin stimulated signal). […]

[3] = system: COLO205 (colon); assay: Inhibition of cell proliferation, CellTiter-Glo, COLO205; settings: Homo sapiens, COLO 205, 72 h
Summary of the method: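 Exponentially growing COLO205 cells in medium with 10% FBS were plated below 2000 cells/well at 37 °C, 5% CO2. Untreated wells served as controls.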

T1 sequence (P08069 31-1367): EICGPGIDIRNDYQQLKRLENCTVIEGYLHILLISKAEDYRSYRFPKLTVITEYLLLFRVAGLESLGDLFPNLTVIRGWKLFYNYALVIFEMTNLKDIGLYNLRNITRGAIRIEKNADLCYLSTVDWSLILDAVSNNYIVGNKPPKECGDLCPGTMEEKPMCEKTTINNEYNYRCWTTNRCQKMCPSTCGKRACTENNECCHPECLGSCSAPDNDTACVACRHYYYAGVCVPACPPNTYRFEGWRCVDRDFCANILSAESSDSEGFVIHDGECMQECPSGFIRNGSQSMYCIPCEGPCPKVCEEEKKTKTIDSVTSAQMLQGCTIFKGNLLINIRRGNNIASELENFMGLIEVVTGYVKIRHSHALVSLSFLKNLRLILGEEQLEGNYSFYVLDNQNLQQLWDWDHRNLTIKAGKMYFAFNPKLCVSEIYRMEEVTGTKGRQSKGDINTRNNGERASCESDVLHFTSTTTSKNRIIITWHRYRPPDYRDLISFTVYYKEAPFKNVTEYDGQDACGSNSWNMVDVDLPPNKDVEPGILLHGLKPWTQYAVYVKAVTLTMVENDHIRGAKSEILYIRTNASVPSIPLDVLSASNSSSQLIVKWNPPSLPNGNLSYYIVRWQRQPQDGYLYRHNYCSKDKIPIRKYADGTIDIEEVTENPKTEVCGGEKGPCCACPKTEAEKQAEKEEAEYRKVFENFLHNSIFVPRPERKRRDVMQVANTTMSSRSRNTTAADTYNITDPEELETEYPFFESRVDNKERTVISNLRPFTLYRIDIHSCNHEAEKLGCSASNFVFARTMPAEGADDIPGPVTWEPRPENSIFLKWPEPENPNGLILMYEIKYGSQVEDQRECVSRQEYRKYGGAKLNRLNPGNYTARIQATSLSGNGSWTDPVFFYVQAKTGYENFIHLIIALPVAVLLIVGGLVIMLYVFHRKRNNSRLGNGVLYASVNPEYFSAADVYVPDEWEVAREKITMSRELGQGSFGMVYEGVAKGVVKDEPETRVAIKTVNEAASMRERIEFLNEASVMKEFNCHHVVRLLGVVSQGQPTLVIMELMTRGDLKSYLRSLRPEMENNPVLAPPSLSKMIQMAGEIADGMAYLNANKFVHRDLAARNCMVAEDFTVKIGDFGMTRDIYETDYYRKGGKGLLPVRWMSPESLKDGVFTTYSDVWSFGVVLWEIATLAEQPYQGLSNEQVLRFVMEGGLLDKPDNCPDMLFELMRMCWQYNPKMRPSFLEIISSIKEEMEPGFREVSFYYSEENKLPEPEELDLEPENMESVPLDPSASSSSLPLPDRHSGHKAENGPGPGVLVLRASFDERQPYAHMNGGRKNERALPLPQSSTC
T2 sequence (P06213 28-1382): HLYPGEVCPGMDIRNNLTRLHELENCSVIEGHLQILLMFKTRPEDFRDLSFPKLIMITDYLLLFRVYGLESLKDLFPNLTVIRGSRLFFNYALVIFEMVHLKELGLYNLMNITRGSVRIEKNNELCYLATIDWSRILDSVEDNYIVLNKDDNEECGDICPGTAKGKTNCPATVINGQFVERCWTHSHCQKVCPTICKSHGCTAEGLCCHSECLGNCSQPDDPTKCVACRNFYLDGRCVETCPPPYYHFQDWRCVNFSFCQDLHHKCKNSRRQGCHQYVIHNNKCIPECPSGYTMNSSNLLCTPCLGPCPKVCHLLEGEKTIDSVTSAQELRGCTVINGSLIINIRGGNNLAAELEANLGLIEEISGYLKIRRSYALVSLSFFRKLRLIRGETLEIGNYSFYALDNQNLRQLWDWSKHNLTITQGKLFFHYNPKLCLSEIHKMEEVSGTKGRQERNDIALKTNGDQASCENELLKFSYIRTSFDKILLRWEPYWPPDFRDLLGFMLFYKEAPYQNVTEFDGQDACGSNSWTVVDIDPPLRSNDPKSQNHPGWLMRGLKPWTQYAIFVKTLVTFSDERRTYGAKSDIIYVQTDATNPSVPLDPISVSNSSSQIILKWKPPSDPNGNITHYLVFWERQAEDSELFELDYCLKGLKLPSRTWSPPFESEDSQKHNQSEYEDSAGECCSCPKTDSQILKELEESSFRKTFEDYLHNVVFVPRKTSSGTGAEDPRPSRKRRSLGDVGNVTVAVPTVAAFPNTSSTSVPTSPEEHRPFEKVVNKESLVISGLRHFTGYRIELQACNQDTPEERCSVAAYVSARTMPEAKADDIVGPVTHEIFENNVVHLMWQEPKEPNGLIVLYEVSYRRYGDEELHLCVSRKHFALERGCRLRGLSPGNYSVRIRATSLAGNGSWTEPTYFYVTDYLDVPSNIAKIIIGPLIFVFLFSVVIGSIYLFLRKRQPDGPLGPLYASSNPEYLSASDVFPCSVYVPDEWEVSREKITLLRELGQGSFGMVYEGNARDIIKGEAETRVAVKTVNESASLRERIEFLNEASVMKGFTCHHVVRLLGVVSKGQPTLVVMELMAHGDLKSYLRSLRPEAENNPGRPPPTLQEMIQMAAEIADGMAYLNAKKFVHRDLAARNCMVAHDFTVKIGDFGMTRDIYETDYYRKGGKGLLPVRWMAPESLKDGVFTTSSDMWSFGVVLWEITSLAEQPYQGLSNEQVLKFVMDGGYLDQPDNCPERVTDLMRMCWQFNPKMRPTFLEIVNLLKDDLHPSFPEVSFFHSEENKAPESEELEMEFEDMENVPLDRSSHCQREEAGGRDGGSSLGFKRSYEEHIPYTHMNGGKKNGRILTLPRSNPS

Structure (SMILES) | IC50 [1] [nM] | IC50 [2] [nM] | IC50 [3] [nM]
COc1cc(N2CCN(C3CCN(CCF)CC3)CC2)ccc1Nc1nccc(-c2c(-c3cccc(C(=O)Nc4c(F)cccc4F)c3)nc3ccccn23)n1 [Example 90, N-(2,6-difluorophenyl)-3-[3-(2-{[4-{4-[1-(2-fluoroethyl)-4-piperidinyl]-1-piperazinyl}-2-(methyloxy)phenyl]amino}-4-pyrimidinyl)imidazo[1,2-a]pyridin-2-yl]benzamide] | < 100 | < 100 | 250 to 1000
COc1cc(C2CCN(CCF)CC2)ccc1Nc1nccc(-c2c(-c3ccc(OC)c(C(=O)Nc4c(F)cccc4F)c3)nc3ccccn23)n1 [Example 179, N-(2,6-difluorophenyl)-5-[3-(2-{[4-[1-(2-fluoroethyl)-4-piperidinyl}-2-(methyloxy)phenyl]-amino}-4-pyrimidinyl)imidazo[1,2-a]pyridin-2-yl]-2-(methyloxy)benzamide] | < 100 | < 100 | 250 to 1000
COc1cc(N2CCC(N3CCC(O)CC3)CC2)ccc1Nc1nccc(-c2c(-c3ccc(OC)c(C(=O)Nc4c(F)cccc4F)c3)nc3ccccn23)n1 [Example 81, N-(2,6-difluorophenyl)-5-[3-(2-{[4-(4-hydroxy-1,4′-bipiperidin-1′-yl)-2-(methyloxy)phenyl]-amino}-4-pyrimidinyl)imidazo[1,2-a]pyridin-2-yl]-2-(methyloxy)benzamide] | < 100 | < 100 | < 250
COc1ccc(-c2nc3cc(C)ccn3c2-c2ccnc(Nc3cccc(OCCN(C)C)c3)n2)cc1C(=O)Nc1c(F)cccc1F [Example 2, N-(2,6-difluorophenyl)-5-(3-{2-[(3-{[2-(dimethylamino)ethyl]oxy}phenyl)amino]-4-pyrimidinyl}-7-methylimidazo[1,2-a]pyridin-2-yl)-2-(methyloxy)benzamide] | > 500 | > 500 | 250 to 1000
COc1cc(CCCN2CCN(C)CC2)ccc1Nc1nccc(-c2c(-c3ccc(OC)c(C(=O)Nc4c(F)cccc4F)c3)nc3ccccn23)n1 [Example 142, N-(2,6-difluorophenyl)-2-(methyloxy)-5-{3-[2-({2-(methyloxy)-4-[3-(4-methyl-1-piperazinyl)propyl]phenyl}amino)-4-pyrimidinyl]imidazo[1,2-a]pyridin-2-yl}benzamide] | < 100 | < 100 | 250 to 1000
COc1ccn2c(-c3ccnc(Nc4cccc(OCCN(C)C)c4)n3)c(-c3cccc(C(=O)Nc4cccc(F)c4F)c3)nc2c1 [Example 15, N-(2,3-difluorophenyl)-3-[3-{2-[(3-{[2-(dimethylamino)ethyl]oxy}phenyl)amino]-4-pyrimidinyl}-7-(methyloxy)imidazo[1,2-a]pyridin-2-yl]benzamide] | 100 to 500 | > 500 | < 250
COc1cc(N2CCC(N3CCC(O)CC3)CC2)ccc1Nc1nccc(-c2c(-c3cccc(C(=O)Nc4c(F)cccc4F)c3)nc3ccccn23)n1 [Example 80, N-(2,6-difluorophenyl)-3-[3-(2-{[4-(4-hydroxy-1,4′-bipiperidin-1′-yl)-2-(methyloxy)-phenyl]amino}-4-pyrimidinyl)imidazo[1,2-a]pyridin-2-yl]benzamide] | < 100 | < 100 | < 250
COc1cc(N2CCC(N3CCCCC3)CC2)c(C)cc1Nc1nccc(-c2c(-c3ccc(OC)c(C(=O)Nc4c(F)cccc4F)c3)nc3ccccn23)n1 [Example 109, 5-[3-(2-{[4-(1,4′-bipiperidin-1′-yl)-5-methyl-2-(methyloxy)phenyl]amino]-4-pyrimidinyl)imidazo[1,2-a]pyridin-2-yl]-N-(2,6-difluorophenyl)-2-(methyloxy)benzamide] | < 100 | < 100 | < 250
COc1cc(N2CCC(N3CCC[C@H](O)C3)CC2)ccc1Nc1nccc(-c2c(-c3cccc(C(=O)Nc4c(F)cccc4F)c3)nc3ccccn23)n1 [Example 83, N-(2,6-difluorophenyl)-3-[3-(2-{[4-[(3S)-3-hydroxy-1,4′-bipiperidin-1′-yl]-2-(methyloxy)phenyl]amino}-4-pyrimidinyl)imidazo[1,2-a]pyridin-2-yl]benzamide] | < 100 | 100 to 500 | 250 to 1000
CC(C)COc1cc(N2CCC(N3CCCCC3)CC2)ccc1Nc1nccc(-c2c(-c3cccc(C(=O)Nc4c(F)cccc4F)c3)nc3ccccn23)n1 [Example 32, 3-{3-[2-({4-(1,4′-bipiperidin-1′-yl)-2-[(2-methylpropyl)oxy]phenyl}amino)-4-pyrimidinyl]imidazo[1,2-a]pyridin-2-yl}-N-(2,6-difluorophenyl)benzamide] | > 500 | > 500 | 250 to 1000
COc1cc(N2CCC(N3CCC(C)CC3)CC2)ccc1Nc1nccc(-c2c(-c3cccc(C(=O)Nc4c(F)cccc4F)c3)nc3ccccn23)n1 [Example 46, N-(2,6-difluorophenyl)-3-[3-(2-{[4-(4-methyl-1,4′-bipiperidin-1′-yl)-2-(methyloxy)phenyl]amino}-4-pyrimidinyl)imidazo[1,2-a]pyridin-2-yl]benzamide] | 100 to 500 | 100 to 500 | > 1000
COc1cc(N2CCC(N3CCCCC3)CC2)ccc1Nc1nccc(-c2c(-c3cccc(C(=O)Nc4c(F)cccc4F)c3)nc3c(C)cccn23)n1 [Example 43, 3-[3-(2-{[4-(1,4′-bipiperidin-1-yl)-2-(methyloxy)phenyl]amino}-4-pyrimidinyl)-8-methylimidazo[1,2-a]pyridin-2-yl]-N-(2,6-difluorophenyl)benzamide] | < 100 | 100 to 500 | 250 to 1000
COc1cc(N2CCC(N3CCCCC3)CC2)ccc1Nc1nccc(-c2c(-c3ccc(OC)c(C(=O)Nc4c(F)cccc4F)c3)nc3cc(C)ccn23)n1 [Example 4, 5-[3-(2-{[4-(1,4′-bipiperidin-1′-yl)-2-(methyloxy)phenyl]amino}-4-pyrimidinyl)-7-methylimidazo[1,2-a]pyridin-2-yl]-N-(2,6-difluorophenyl)-2-(methyloxy)benzamide] | < 100 | < 100 | 250 to 1000

Second part, the compound after the results:

IC50 [1] [nM] | IC50 [2] [nM] | IC50 [3] [nM] | Structure (SMILES)
< 100 | 100 to 500 | 250 to 1000 | COc1cc(CCCN2CCCCC2)ccc1Nc1nccc(-c2c(-c3cccc(C(=O)Nc4c(F)cccc4F)c3)nc3ccccn23)n1 [Example 139, N-(2,6-difluorophenyl)-3-{3-[2-({2-(methyloxy)-4-[3-(1-piperidinyl)propyl]phenyl}amino)-4-pyrimidinyl]imidazo[1,2-a]pyridin-2-yl}benzamide]
100 to 500 | 100 to 500 | 250 to 1000 | COc1cc(N2CCC[C@H](O)C2)ccc1Nc1nccc(-c2c(-c3cccc(C(=O)Nc4c(F)cccc4F)c3)nc3ccccn23)n1 [Example 169, N-(2,6-difluorophenyl)-3-[3-(2-{[4-[(3S)-3-hydroxy-1-piperidinyl]-2-(methyloxy)phenyl]amino}-4-pyrimidinyl)imidazo[1,2-a]pyridin-2-yl]benzamide]
< 100 | 100 to 500 | > 1000 | COc1cc([C@H]2CC[C@H](N3CCN(CCS(C)(=O)=O)CC3)CC2)ccc1Nc1nccc(-c2c(-c3cccc(C(=O)Nc4c(F)cccc4F)c3)nc3ccccn23)n1 [Example 94, N-(2,6-difluorophenyl)-3-[3-(2-{[2-(methyloxy)-4-(trans-4-{4-[2-(methylsulfonyl)-ethyl]-1-piperazinyl}cyclohexyl)phenyl]amino}-4-pyrimidinyl)imidazo[1,2-a]pyridin-2-yl]benzamide]
< 100 | < 100 | 250 to 1000 | CCOc1ccc(-c2nc3ccccn3c2-c2ccnc(Nc3ccc(CCN4CCN(C)CC4)cc3OC)n2)cc1C(=O)Nc1c(F)cccc1F [Example 133, N-(2,6-difluorophenyl)-2-(ethyloxy)-5-{3-[2-({2-(methyloxy)-4-[2-(4-methyl-1-piperazinyl)ethyl]phenyl}amino)-4-pyrimidinyl]imidazo[1,2-a]pyridin-2-yl}benzamide]
< 100 | < 100 | 250 to 1000 | CCOc1cc(C2CCN(CCS(C)(=O)=O)CC2)ccc1Nc1nccc(-c2c(-c3cccc(C(=O)Nc4c(F)cccc4F)c3)nc3ccccn23)n1 [Example 183, N-(2,6-difluorophenyl)-3-(3-{2-[(2-(ethyloxy)-4-{1-[2-(methylsulfonyl)ethyl]-4-piperidinyl}phenyl)amino]-4-pyrimidinyl}imidazo[1,2-a]pyridin-2-yl)benzamide]
< 100 | < 100 | 250 to 1000 | COc1cc(N2CCC(CN3CCN(C)CC3)CC2)ccc1Nc1nccc(-c2c(-c3cccc(C(=O)Nc4c(F)cccc4F)c3)nc3ccccn23)n1 [Example 37, N-(2,6-difluorophenyl)-3-(3-{2-[(2-(methyloxy)-4-{4-[(4-methyl-1-piperazinyl)methyl]-1-piperidinyl}phenyl)amino]-4-pyrimidinyl}imidazo[1,2-a]pyridin-2-yl)benzamide]
